Data from ChEMBL document CHEMBL2390878, “Novel 1H-imidazol-2-amine derivatives as potent and orally active vascular adhesion protein-1 (VAP-1) inhibitors for diabetic macular edema treatment” (Bioorg Med Chem, 2013).
The source made the active and inactive calls. The rule behind the calls is not given here.

Legend:
[1] = target: T1, Amine oxidase [copper-containing] 3 (Homo sapiens, UniProt Q16853); test: Inhibition of human VAP-1 expressed in CHO cells using [14C]-benzylamine as substrate preincubated for 30 mins prior to substrate addition measured after 1 hr by scintillation spectrometric analysis; type: cell-based
T1 sequence (Q16853 whole entry): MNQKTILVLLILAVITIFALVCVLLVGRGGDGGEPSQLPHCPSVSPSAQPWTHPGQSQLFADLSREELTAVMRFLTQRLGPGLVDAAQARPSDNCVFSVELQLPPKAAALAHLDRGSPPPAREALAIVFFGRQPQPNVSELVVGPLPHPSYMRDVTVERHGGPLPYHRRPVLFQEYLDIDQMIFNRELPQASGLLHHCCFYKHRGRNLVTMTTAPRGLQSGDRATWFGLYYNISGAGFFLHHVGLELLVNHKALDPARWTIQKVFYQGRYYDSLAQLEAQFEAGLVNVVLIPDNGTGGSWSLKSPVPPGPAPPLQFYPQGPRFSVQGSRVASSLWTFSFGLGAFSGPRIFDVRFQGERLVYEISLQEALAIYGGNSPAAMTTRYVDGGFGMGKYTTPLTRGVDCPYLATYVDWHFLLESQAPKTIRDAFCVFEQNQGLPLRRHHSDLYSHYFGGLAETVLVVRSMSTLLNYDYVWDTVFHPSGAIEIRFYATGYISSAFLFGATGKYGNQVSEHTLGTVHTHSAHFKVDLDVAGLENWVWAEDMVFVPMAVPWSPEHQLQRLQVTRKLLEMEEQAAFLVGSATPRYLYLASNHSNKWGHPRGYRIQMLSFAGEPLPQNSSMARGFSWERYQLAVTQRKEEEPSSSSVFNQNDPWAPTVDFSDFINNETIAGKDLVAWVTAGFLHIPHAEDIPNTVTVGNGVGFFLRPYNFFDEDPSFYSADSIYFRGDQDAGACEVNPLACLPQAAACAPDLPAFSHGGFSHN

[2] = target: T2, Amine oxidase [copper-containing] 3 (Rattus norvegicus, UniProt O08590); test: Inhibition of rat VAP-1 expressed in CHO cells using [14C]-benzylamine as substrate preincubated for 30 mins prior to substrate addition measured after 1 hr by scintillation spectrometric analysis; type: cell-based
T2 sequence (O08590 whole entry): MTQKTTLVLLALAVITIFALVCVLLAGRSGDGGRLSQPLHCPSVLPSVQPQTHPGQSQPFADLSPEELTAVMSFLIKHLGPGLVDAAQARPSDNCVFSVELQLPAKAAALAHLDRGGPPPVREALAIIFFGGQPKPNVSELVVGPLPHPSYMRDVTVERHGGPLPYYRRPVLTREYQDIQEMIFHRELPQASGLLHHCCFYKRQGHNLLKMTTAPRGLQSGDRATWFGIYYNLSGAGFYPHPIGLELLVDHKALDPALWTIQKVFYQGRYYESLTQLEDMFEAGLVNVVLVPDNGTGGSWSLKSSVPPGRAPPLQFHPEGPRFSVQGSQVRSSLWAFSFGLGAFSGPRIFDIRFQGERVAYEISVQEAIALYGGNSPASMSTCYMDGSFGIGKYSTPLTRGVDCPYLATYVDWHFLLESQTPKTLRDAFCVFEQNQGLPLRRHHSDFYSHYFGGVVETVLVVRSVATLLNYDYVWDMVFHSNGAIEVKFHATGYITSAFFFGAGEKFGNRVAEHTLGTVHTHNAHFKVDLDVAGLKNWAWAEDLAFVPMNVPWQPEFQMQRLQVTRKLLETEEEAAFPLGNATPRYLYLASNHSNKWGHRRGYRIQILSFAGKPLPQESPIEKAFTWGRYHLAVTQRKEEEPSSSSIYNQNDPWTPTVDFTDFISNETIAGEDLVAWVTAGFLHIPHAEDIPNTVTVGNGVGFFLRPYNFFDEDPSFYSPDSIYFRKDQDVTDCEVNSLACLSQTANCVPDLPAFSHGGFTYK

Rattus norvegicus [3] = test: Inhibition of VAP-1 in streptozotocin-induced diabetic Sprague-Dawley rat plasma using [14C]-benzylamine as substrate at 10 mg/kg, po administered for 2 weeks after streptozotocin-challenge by scintillation spectrometric analysis; type: functional, organism-based; parameters: dose 10 mg/kg
Homo sapiens [4] = species on record: Homo sapiens; test: Selectivity ratio of IC50 for human recombinant MAO-B to IC50 for human VAP-1
Rattus norvegicus [5] = test: Inhibition of ocular permeability in streptozotocin-induced diabetic Sprague-Dawley rat at 10 mg/kg, po administered for 2 weeks after streptozotocin-challenge measured 24 hrs after final administration of compound; type: functional, organism-based; parameters: dose 10 mg/kg; conditions: Eye
[6] = target: T3, Amine oxidase [flavin-containing] B (Homo sapiens, UniProt P27338); test: Inhibition of human recombinant MAO-B using benzylamine as substrate after 1 hr by fluorometric assay
T3 sequence (P27338 whole entry): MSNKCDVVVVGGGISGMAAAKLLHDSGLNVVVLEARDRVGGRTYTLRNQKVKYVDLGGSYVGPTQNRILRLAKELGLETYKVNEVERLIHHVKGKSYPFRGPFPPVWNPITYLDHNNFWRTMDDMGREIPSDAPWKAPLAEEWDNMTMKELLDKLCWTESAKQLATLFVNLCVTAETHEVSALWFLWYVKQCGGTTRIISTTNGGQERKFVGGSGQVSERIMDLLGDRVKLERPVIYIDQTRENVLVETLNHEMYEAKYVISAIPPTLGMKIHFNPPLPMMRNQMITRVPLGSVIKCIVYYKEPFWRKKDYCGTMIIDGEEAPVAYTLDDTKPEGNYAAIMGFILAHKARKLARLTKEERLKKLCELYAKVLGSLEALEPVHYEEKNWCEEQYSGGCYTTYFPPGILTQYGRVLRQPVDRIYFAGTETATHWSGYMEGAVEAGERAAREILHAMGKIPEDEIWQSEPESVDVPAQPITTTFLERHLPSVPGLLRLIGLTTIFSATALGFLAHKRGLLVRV

[7] = target: T4, Amine oxidase [flavin-containing] A (Homo sapiens, UniProt P21397); test: Inhibition of human recombinant MAO-A using 5-hydroxytryptamine as substrate after 1 hr by fluorometric assay
T4 sequence (P21397 whole entry): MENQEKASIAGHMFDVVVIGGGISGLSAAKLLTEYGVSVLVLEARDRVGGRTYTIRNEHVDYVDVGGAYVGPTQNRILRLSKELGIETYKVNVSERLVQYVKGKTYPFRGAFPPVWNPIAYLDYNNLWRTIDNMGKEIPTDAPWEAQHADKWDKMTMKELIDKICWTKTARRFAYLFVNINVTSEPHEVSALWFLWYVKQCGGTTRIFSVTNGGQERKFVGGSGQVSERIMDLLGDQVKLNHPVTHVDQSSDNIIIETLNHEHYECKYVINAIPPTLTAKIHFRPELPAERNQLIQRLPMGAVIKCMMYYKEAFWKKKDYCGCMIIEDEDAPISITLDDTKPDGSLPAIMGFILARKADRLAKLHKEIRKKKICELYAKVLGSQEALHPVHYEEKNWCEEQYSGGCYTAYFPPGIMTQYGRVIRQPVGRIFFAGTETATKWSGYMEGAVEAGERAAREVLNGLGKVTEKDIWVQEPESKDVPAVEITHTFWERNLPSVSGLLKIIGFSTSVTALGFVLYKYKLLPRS

Homo sapiens [8] = species on record: Homo sapiens; test: Selectivity ratio of IC50 for human recombinant MAO-A to IC50 for human VAP-1

Row | SMILES | IC50 [1] | IC50 [2] | also measured
1 | Nc1ncc[nH]1 | > 100 µM | 90 µM | 
2 | Cc1cccc2[nH]c(N)nc12 | > 100 µM | 1 µM | 
3 | N=C(N)Nc1ccccc1 [PHENYLGUANIDINE] | > 100 µM | 78 µM | 
4 | Nc1cc2ccccc2[nH]1 | > 100 µM | 63 µM | 
5 | CC(=O)Nc1nc(CCc2ccc(Cc3c[nH]c(N)n3)cc2)cs1 | 0.019 µM | 0.0051 µM | inhibition (Rattus norvegicus [3]): Active; Ratio IC50 (Homo sapiens [4]): > 580; inhibition (Rattus norvegicus [5]): Active; IC50 [6]: 11 µM; IC50 [7]: > 100 µM; Ratio IC50 (Homo sapiens [8]): > 580
6 | Nc1nc(Cc2ccccc2)c[nH]1 | 32 µM | 0.42 µM | 
7 | CC(=O)Nc1nc(CCc2ccc(CCc3c[nH]c(N)n3)cc2)cs1 | 2.2 µM | 0.018 µM | 
8 | CC(=O)Nc1nc(CCc2ccc(-c3c[nH]c(N)n3)cc2)cs1 | 13 µM | 0.15 µM | 
9 | Nc1nc2ccccc2[nH]1 | 4.1 µM | 1 µM | 
10 | Nc1nc(-c2ccccc2)c[nH]1 | > 100 µM | 44 µM | 
11 | NC1=NCCN1c1ccccc1 | > 100 µM | > 100 µM | 
12 | c1ccc(NC2=NCCN2)cc1 | > 100 µM | > 100 µM | 
13 | NCc1nc2ccccc2[nH]1 | > 100 µM | > 100 µM | 
14 | Cn1c(N)nc2ccccc21 | > 100 µM | 80 µM | 
15 | CC(=O)Nc1nc(CCc2ccc(NC(=N)N)cc2)cs1 |  |  | IC50 [6]: 60 µM; IC50 [7]: > 100 µM
16 | c1ccc2[nH]cnc2c1 [BENZIMIDAZOLE] | > 100 µM | > 100 µM | 
17 | Nc1ncc(CCc2ccccc2)[nH]1 | > 100 µM | 4.8 µM | 
18 | Cc1ccc2nc(N)[nH]c2c1 | > 100 µM | 9.3 µM | 
